The text below walks through data of US6838565B2, “Substituted benzoic acid amides, their preparation and their use as pharmaceutical compositions” (Boehringer Ingelheim Pharma GmbH & Co. KG, priority 2002, dated 2005).

Where a name gives a salt, the structure may show the parent alone.

The target of this assay is T1, human factor Xa (Homo sapiens, UniProt P00742).
T1 construct: released from the colourless chromogenic substrate by human factor Xa; purchased Roche
Put plainly: Inhibition of factor Xa, enzyme-kinetic measurement with chromogenic substrate (Chromozym X). It counts as biochemical. As to conditions: pNA release from Chromozym X 200 μMol/l, 405 nm, 37° C., pH 8.0, factor Xa 0.175 U/ml. How it is done: Method: Enzyme-kinetic measurement with chromogenic substrate. The quantity of p-nitroaniline (pNA) released from the colourless chromogenic substrate by human factor Xa is determined photometrically at 405 nm. It is proportional to the activity of the enzyme used. The inhibition of the enzyme activity by the test substance (in relation to the solvent control) is determined at various concentrations of test substance and from this the IC50 is calculated, as the concentration which inhibits the factor Xa used by 50%.
• Tris(hydroxymethyl)-aminomethane buffer (100 mmol) and sodium chloride (150 mmol), pH 8.0 • Factor Xa (Roche), spec. activity: 10 U/0.5 ml, final concentration: 0.175 U/ml for each reaction mixture • Substrate Chromozym X (Roche), final concentration: 200 μMol/l for each reaction mixture • Test substance: final concentration 100, 30, 10, 3, 1, 0.3, 0.1, 0.03, 0.01, 0.003, 0.001 μMol/l Procedure
10 μl of a 23.5-times concentrated starting solution of the test substance or solvent (control), 175 μl of tris(hydroxymethyl)-aminomethane buffer and 25 μl of a 1.65 U/ml Factor Xa working solution are incubated for 10 minutes at 37° C. After the addition of 25 μl of Chromozym X working solution (1.88 μmol/l) the sample is measured in a photometer (SpectraMax 250) at 405 nm for 150 seconds at 37° C.
• 1. […]

T1 sequence (P00742 235-488 limits assumed): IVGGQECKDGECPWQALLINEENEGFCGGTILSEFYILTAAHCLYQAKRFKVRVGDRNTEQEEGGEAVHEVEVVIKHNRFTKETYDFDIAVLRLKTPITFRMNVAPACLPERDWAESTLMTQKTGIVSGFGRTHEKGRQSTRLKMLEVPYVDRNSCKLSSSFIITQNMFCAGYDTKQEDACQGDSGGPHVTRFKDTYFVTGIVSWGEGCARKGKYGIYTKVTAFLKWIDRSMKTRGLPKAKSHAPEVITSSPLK
T1 sequence (P00742 41-179 partner limits assumed): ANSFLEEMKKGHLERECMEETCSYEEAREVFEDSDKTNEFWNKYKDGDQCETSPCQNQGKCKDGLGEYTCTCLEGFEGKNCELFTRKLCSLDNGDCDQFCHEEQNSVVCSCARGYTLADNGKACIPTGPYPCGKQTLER

`Cc1cc(C(=O)NC(Cc2nnn[nH]2)c2cccc(C(=N)N)c2)ccc1C(=O)N1CCCC1` (centres unmarked) [(2), N-[1-(3-amidino-phenyl)-2-(1H-tetrazol-5-yl)-ethyl]-3-methyl-4-(pyrrolidin-1-carbonyl)-benzamide-hydrochloride]: the IC50 (commonly the point on the concentration scale where inhibition reaches its midpoint) is 0.026 µM. This lies in the double-digit nanomolar range.
Turning to `Cc1cc(C(=O)NC(Cc2nnn[nH]2)c2cccc(C(=N)N)c2)ccc1C(=O)N1CC=CC1` (centres unmarked) [(1), N-[1-(3-amidino-phenyl)-2-(1H-tetrazol-5-yl)-ethyl]-4-(2,5-dihydro-pyrrol-1-yl-carbonyl)-3-methyl-benzamide-hydrochloride], it took 0.008 µM to reach half-maximal inhibition (IC50).
